From patent publication US20250353859A1, “COMPOUNDS AS CCR6 INHIBITORS” (Hoffmann-La Roche Inc., priority 2023, published 2025)

Experiments:
human CCR6 [1] = target: T1, human CCR6 (Homo sapiens, UniProt P51684); experiment: CHO-K1 CCR6 chemotaxis assay towards CCL20; format: cell-based; details: CHO-K1 cells overexpressing human CCR6; 100 ng/ml CCL20, 4 h; relative Log IC50
T1 sequence (P51684 1-374): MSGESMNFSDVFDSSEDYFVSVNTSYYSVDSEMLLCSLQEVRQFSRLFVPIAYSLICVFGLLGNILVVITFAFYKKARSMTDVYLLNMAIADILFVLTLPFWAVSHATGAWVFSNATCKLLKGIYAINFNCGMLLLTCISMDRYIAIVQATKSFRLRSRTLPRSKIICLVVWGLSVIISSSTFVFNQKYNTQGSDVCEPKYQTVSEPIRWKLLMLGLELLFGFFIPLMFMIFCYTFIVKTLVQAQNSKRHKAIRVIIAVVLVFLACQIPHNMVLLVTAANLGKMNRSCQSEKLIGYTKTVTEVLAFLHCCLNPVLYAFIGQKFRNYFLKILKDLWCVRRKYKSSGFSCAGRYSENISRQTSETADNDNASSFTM
Source text: Cells overexpressing human CCR6 were used in the chemotaxis assay (DiscoverX, cAMP Hunter™ CHO-K1 CCR6 Gi Cell Line). Growth medium of these cells consisted of DMEM/F12, non-essential Amino acids (1×NEAA, Gibco 11140050), 10% FBS and 1× pen/strep (Gibco 15140). For the chemotaxis assay, Corning Transwell plates were used with a pore size of 8 m (Corning 351164). Cells were harvested using trypsin and diluted to 4*10^6 cells/ml in chemotaxis medium (DMEM, 0.25% BSA, pen/strep). Compounds were four-fold serially diluted in DMSO. Further dilutions were made in chemotaxis medium. Cells were incubated with test compounds for 30 min at 37° C. prior to initiation of the assay (2*10^6 cells/ml). Final DMSO concentration in the assay was 0.2%. Wells of the Transwell plates were filled with 200 μl chemotaxis medium containing 100 ng/ml CCL20 (R&D systems 360-MP). 50 μl of the cell/compound suspension was added to the inserts of the Transwell plates (100,000 cells/insert). The Transwell plates were placed in an incubator at 37° C., 5% CO2 for 4 h. After 4 h, the number of migrated cells was quantified using CellTiter Glo (Promega). Percentage inhibition values were calculated based on the low and high signal obtained with 0.2% DMSO in chemotaxis medium without and with CCL20, respectively. The relative Log IC50 was determined with GraphPad Prism 9 using a four-parameter dose-response model.

human CCR6 [2] = target: T1, human CCR6; experiment: Human CCR6-CRE reporter assay; format: cell-based; set-up: The second construct contained the open reading frame of human CCR6 in the pUNO1 backbone; host or cells: 293FT cells (transient transfection with TransIT-293)
Protocol: 293FT cells were transfected with 2 constructs using TransIT-293 (Mirus). The first construct (pGL4.29, Promega) expressed the luciferase reporter gene luc2P in response to the binding of cAMP-induced CREB to the CREelement in its promoter. The second construct contained the open reading frame of human CCR6 in the pUNO1 backbone under the control of an enhanced CMV promoter(InVivoGen).48 h after transfection, cells were harvested and diluted to 750,000 cells/ml in culture medium (DMEM, 10% FBS, 1× pen/strep(Gibco 15140)). Compounds were 2.5-fold serially diluted in DMSO. Further dilutions were made in assay medium (DMEM, 10% FBS, 1× pen/strep, 6 μM Forskolin, 6 nM CCL20). 4 μl of the compound solution was added to a white MW384 plate, followed by […] of the cell suspension. Final DMSO concentration in the assay was 0.1%. The MW384 plate was placed in an incubator at 37° C., 5% CO2 for 5 h. Luciferase activity was determined by addition of 24 μl of a 2.5× diluted BriteLite luciferase solution(Perkin Elmer), followed by luminescence measurement using a VICTOR Plate reader (Perkin Elmer). […] The relative Log IC50 was determined with GraphPad Prism 9 using a four-parameter dose-response model.

[3] = 293FT cells transfected with human CCR6 and CRE-luciferase, Forskolin + CCL20, 5 h, relative Log IC50, read-out: CCR6-CRE reporter (converted)

Row | IC50 (human CCR6 [1]) [nM] | IC50 (human CCR6 [2]; [3]) [nM] | IC50 (human CCR6 [2]; scaffold variant X = S, R1 = CF3, read-out: Activity in human CCR6-CRE reporter assay) [nM] | SMILES
1 | 10 |  |  | N#Cc1c[nH]c2ccc(-c3ccc(S(=O)(=O)N4CCC(Nc5ccc(OC(F)(F)F)cn5)CC4)cc3)cc12 [Example 15, 5-{4-[(4-{[5-(trifluoromethoxy)pyridin-2-yl]Amino}piperidin-1-yl)sulfonyl]phenyl}-1H-indole-3-carbonitrile]
2 | 7.94 | 39.8 |  | Cc1cc(-c2ccc(S(=O)(=O)N3CCC(Nc4ccc(OC(F)(F)F)cn4)CC3)cc2)cn2c(C(C)C)nnc12 [Example 57, N-(1-{4-[8-methyl-3-(propan-2-yl)-[1,2,4]triazolo[4,3-a]pyridin-6-yl]benzenesulfonyl}piperidin-4-yl)-5-(trifluoromethoxy)pyridin-2-amine]
3 | 6.31 | 20 |  | N#Cc1c[nH]c2ccc(-c3ccc(S(=O)(=O)[C@H]4CC[C@H](Nc5ccc(SC(F)(F)F)cc5)CC4)cc3)cc12 [Example 44, 5-(4-{[trans-4-({4-[(trifluoromethyl)sulfanyl]phenyl}Amino)cyclohexyl]sulfonyl}phenyl)-1H-indole-3-carbonitrile]
4 | 79.4 | 79.4 |  | O=S(=O)(c1ccc(-c2ccc3nccn3c2)cc1)[C@H]1CC[C@H](Nc2ccc(OC(F)(F)F)cc2)CC1 [Example 43, N-[trans-4-(4-{imidazo[1,2-a]pyridin-6-yl}benzenesulfonyl)cyclohexyl]-4-(trifluoromethoxy)aniline]
5 | 2 | 79.4 |  | Cc1cc(-c2ccc(S(=O)(=O)N3CCC(Nc4ccc(OC(F)(F)F)cn4)CC3)cc2)cn2c(C(C)C)cnc12 [Example 55, N-(1-{4-[8-methyl-3-(propan-2-yl)imidazo[1,2-a]pyridin-6-yl]benzenesulfonyl}piperidin-4-yl)-5-(trifluoromethoxy)pyridin-2-amine]
6 | 39.8 |  |  | O=c1[nH]nc2ccc(-c3ccc(S(=O)(=O)N4CCC(Nc5ccc(OC(F)(F)F)cc5)CC4)cc3)cn12 [Example 23, 6-{4-[(4-{[4-(trifluoromethoxy)phenyl]Amino}piperidin-1-yl)sulfonyl]phenyl}-2H,3H-[1,2,4]triazolo[4,3-a]pyridin-3-one]
7 | 15.8 |  | 74 | NC(=O)c1cc(-c2ccc(S(=O)(=O)N3CCC(Nc4ccc(SC(F)(F)F)cn4)CC3)cc2)ccn1 [Example 63, 4-(4-{[4-({5-[(trifluoromethyl)sulfanyl]pyridin-2-yl}amino)piperidin-1-yl]sulfonyl}phenyl)pyridine-2-carboxamide]
8 | 79.4 | 158 |  | Cc1cnc2ccc(-c3ccc(S(=O)(=O)[C@H]4CC[C@H](Nc5ccc(OC(F)(F)F)cn5)CC4)cc3)cn12 [Example 42, N-[trans-4-(4-{3-methylimidazo[1,2-a]pyridin-6-yl}benzenesulfonyl)cyclohexyl]-5-(trifluoromethoxy)pyridin-2-amine]
9 | 20 | 100 |  | Cc1cc(-c2ccc(S(=O)(=O)N3CCC(Nc4ccc(SC(F)(F)F)cc4)CC3)cc2)cn2c(C(C)C)cnc12 [Example 33, 1-{4-[8-methyl-3-(propan-2-yl)imidazo[1,2-a]pyridin-6-yl]benzenesulfonyl}-N-{4-[(trifluoromethyl)sulfanyl]phenyl}piperidin-4-amine]
10 | 126 |  |  | N#Cc1c[nH]c2ccc(-c3ccc(S(=O)(=O)N4CCC(Nc5ccc(OC(F)F)cc5)CC4)cc3)cc12 [Example 29, 5-{4-[(4-{[4-(difluoromethoxy)phenyl]Amino}piperidin-1-yl)sulfonyl]phenyl}-1H-indole-3-carbonitrile]
11 |  | 79.4 |  | Cc1cc(-c2ccc(S(=O)(=O)[C@H]3CC[C@H](Nc4ccc(SC(F)(F)F)cc4)CC3)cc2)cn2c(C(C)C)cnc12 [Example 48, N-[trans-4-{4-[8-methyl-3-(propan-2-yl)imidazo[1,2-a]pyridin-6-yl]benzenesulfonyl}cyclohexyl]-4-[(trifluoromethyl)sulfanyl]aniline]
12 |  | 398 |  | N#Cc1ccc(-c2ccc(S(=O)(=O)N3CCC(Nc4cccc(OC(F)F)c4)CC3)cc2)cc1 [Example 2, 4′-[(4-{[3-(difluoromethoxy)phenyl]Amino}piperidin-1-yl)sulfonyl]-[1,1′-biphenyl]-4-carbonitrile]
13 |  | 1260 |  | Cc1cc(-c2ccc(S(=O)(=O)N3CCC(Nc4cc(OC(F)(F)F)ccn4)CC3)cc2)cn2c(C(C)C)cnc12 [Example 69, N-(1-{4-[8-methyl-3-(propan-2-yl)imidazo[1,2-a]pyridin-6-yl]benzenesulfonyl}piperidin-4-yl)-4-(trifluoromethoxy)pyridin-2-amine]
14 |  | 3160 |  | CC(C)c1nnc2ccc(-c3ccc(S(=O)(=O)N4CCC(Nc5cc(OC(F)(F)F)ccn5)CC4)cc3)cn12 [Example 70, N-(1-{4-[3-(propan-2-yl)-[1,2,4]triazolo[4,3-a]pyridin-6-yl]benzenesulfonyl}piperidin-4-yl)-4-(trifluoromethoxy)pyridin-2-amine]
15 |  | 63.1 |  | NC(=O)c1cc(-c2ccc(S(=O)(=O)N3CCC(Nc4ccc(SC(F)(F)F)cc4)CC3)cc2)ccn1 [Example 34, 4-(4-{[4-({4-[(trifluoromethyl)sulfanyl]phenyl}Amino)piperidin-1-yl]sulfonyl}phenyl)pyridine-2-carboxamide]
16 |  | 158 |  | N=S(=O)(c1ccc(-c2ccc3nccn3c2)cc1)[C@H]1CC[C@H](Nc2ccc(SC(F)(F)F)cc2)CC1 (stereo partly drawn) [Example 52, (4-{imidazo[1,2-a]pyridin-6-yl}phenyl)[trans-4-({4-[(trifluoromethyl)sulfanyl]phenyl}Amino)cyclohexyl](imino)-λ^6-sulfanone]
17 |  | 100 |  | N#Cc1ccc(-c2ccc(S(=O)(=O)[C@H]3CC[C@H](Nc4ccc(OC(F)(F)F)cc4)CC3)cc2)cc1 [Example 39, 4′-{[trans-4-{[4-(trifluoromethoxy)phenyl]Amino}cyclohexyl]sulfonyl}-[1,1′-biphenyl]-4-carbonitrile]
18 |  | 501 |  | O=S(=O)(c1ccc(-c2ccccc2)cc1)N1CCC(Nc2ccc(OC(F)F)cc2)CC1 [Example 26, 1-{[1,1′-biphenyl]-4-sulfonyl}-N-[4-(difluoromethoxy)phenyl]piperidin-4-amine]
19 |  | 200 |  | N#Cc1ccc(-c2ccc(S(=O)(=O)N3CCC(Nc4ccc(OC(F)(F)F)cn4)CC3)cc2)cc1 [Example 7, 4′-[(4-{[5-(trifluoromethoxy)pyridin-2-yl]Amino}piperidin-1-yl)sulfonyl]-[1,1′-biphenyl]-4-carbonitrile]
20 |  | 126 |  | CNC(=O)c1cccc(-c2ccc(S(=O)(=O)N3CCC(Nc4ccc(OC(F)(F)F)cc4)CC3C)cc2)c1 (centres unmarked) [Example 38, N-methyl-4′-[(2-methyl-4-{[4-(trifluoromethoxy)phenyl]Amino}piperidin-1-yl)sulfonyl]-[1,1′-biphenyl]-3-carboxamide]
21 |  | 2510 |  | CC1CC(Nc2ccc(OC(F)(F)F)cc2)CCN1S(=O)(=O)c1ccc(-c2ccccc2)cc1 (centres unmarked) [Example 35, 1-{[1,1′-biphenyl]-4-sulfonyl}-2-methyl-N-[4-(trifluoromethoxy)phenyl]piperidin-4-amine]
22 |  | 63.1 |  | NC(=O)c1cc(-c2ccc(S(=O)(=O)[C@H]3CC[C@H](Nc4ccc(SC(F)(F)F)cc4)CC3)cc2)ccn1 [Example 49, 4-(4-{[trans-4-({4-[(trifluoromethyl)sulfanyl]phenyl}Amino)cyclohexyl]sulfonyl}phenyl)pyridine-2-carboxamide]
